Test results taken from PubChem BioAssay AID248 (DTP/NCI, 2004).
Several values for one entry are separate records, joined by “and”; a condition that tells them apart may be missing. Equal values may be shown once. Inconclusive results and toxic doses are left out. No stated cut-off is given here; in the data, active means T/C of 150% or more; inactive means T/C below 125%.

Test system: L1210 leukemia ip in BDF1 mice, survival T/C
Assay: NCI In Vivo Anticancer Drug Screen. Data for tumor model L1210 Leukemia (intraperitoneal) in B6D2F1 (BDF1) mice
Details: endpoint: mean survival time, higher = longer survival
How it was run: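 Survival endpoint. Drug-treated group vs vehicle group, expressed as T divided by C. Tumor passaged by transplantation.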

[1] = dose: 50.0 mg/kg/injection, schedule: Q01DX009 (ip), vehicle: saline
[2] = dose: 100.0 mg/kg/injection, schedule: Q01DX009 (ip), vehicle: Klucel (hydroxypropylcellulose) (HPC)
[3] = dose: 100.0 mg/kg/injection, schedule: Q04DX003 (ip), vehicle: Klucel (hydroxypropylcellulose) (HPC)
[4] = dose: 200.0 mg/kg/injection, schedule: Q01DX009 (ip), vehicle: Klucel (hydroxypropylcellulose) (HPC)
[5] = dose: 200.0 mg/kg/injection, schedule: Q04DX003 (ip), vehicle: Klucel (hydroxypropylcellulose) (HPC)
[6] = dose: 400.0 mg/kg/injection, schedule: Q01DX009 (ip), vehicle: Klucel (hydroxypropylcellulose) (HPC)
[7] = dose: 400.0 mg/kg/injection, schedule: Q04DX003 (ip), vehicle: Klucel (hydroxypropylcellulose) (HPC)
[8] = dose: 100.0 mg/kg/injection, schedule: Q04DX003 (ip), vehicle: saline
[9] = dose: 200.0 mg/kg/injection, schedule: Q04DX003 (ip), vehicle: saline
[10] = dose: 400.0 mg/kg/injection, schedule: Q04DX003 (ip), vehicle: saline
[11] = dose: 100.0 mg/kg/injection, schedule: Q04DX002 (ip), vehicle: saline with Tween-80
[12] = dose: 200.0 mg/kg/injection, schedule: Q04DX002 (ip), vehicle: saline with Tween-80
[13] = dose: 400.0 mg/kg/injection, schedule: Q04DX002 (ip), vehicle: saline with Tween-80

Measured: T/C

C[C@@H]1C[C@H]2[C@@H]3CCC4=CC(=O)C=C[C@]4(C)[C@@]3(F)[C@@H](O)C[C@]2(C)[C@@]1(O)C(=O)CO
inactive: dose: 3.12 mg/kg/injection, schedule: Q01DX009 (ip), vehicle: Klucel (hydroxypropylcellulose) (HPC) 102 % of control | dose: 6.25 mg/kg/injection, schedule: Q01DX009 (ip), vehicle: Klucel (hydroxypropylcellulose) (HPC) 95 % of control | dose: 10.0 mg/kg/injection, schedule: Q01DX Z (sc), vehicle: steriod suspending solution 112 % of control | dose: 12.5 mg/kg/injection, schedule: Q01DX009 (ip), vehicle: Klucel (hydroxypropylcellulose) (HPC) 98 % of control | dose: 12.5 mg/kg/injection, schedule: Q01DX009 (ip), vehicle: saline 111 % of control | dose: 25.0 mg/kg/injection, schedule: Q01DX009 (ip), vehicle: Klucel (hydroxypropylcellulose) (HPC) 96 % of control | dose: 25.0 mg/kg/injection, schedule: Q01DX009 (ip), vehicle: saline sonified 99 % of control | dose: 25.0 mg/kg/injection, schedule: Q01DX009 (ip), vehicle: saline 96 % of control | dose: 25.0 mg/kg/injection, schedule: Q01DX Z (sc), vehicle: steriod suspending solution 112 % of control | dose: 37.5 mg/kg/injection, schedule: Q04DX003 (ip), vehicle: saline with Tween-80 93 % of control | dose: 50.0 mg/kg/injection, schedule: Q01DX009 (ip), vehicle: Klucel (hydroxypropylcellulose) (HPC) 91 % of control | dose: 50.0 mg/kg/injection, schedule: Q01DX009 (ip), vehicle: saline sonified 99 % of control | [1] 107 % of control | dose: 50.0 mg/kg/injection, schedule: Q01DX Z (sc), vehicle: steriod suspending solution 110 % of control | dose: 75.0 mg/kg/injection, schedule: Q04DX003 (ip), vehicle: saline with Tween-80 95 % of control | [2] 91 % of control | dose: 100.0 mg/kg/injection, schedule: Q01DX009 (ip), vehicle: saline sonified 106 % of control | [3] 102 % of control

Cc1cc(C(C)(C)C)cc(C)c1O
inactive: [2] 97 % of control | [3] 95 % of control | [4] 100 % of control | [5] 95 % of control | [6] 97 % of control | [7] 95 % of control

CC(=O)Nc1onc(C)c1N
inactive: [1] 103 % of control | dose: 100.0 mg/kg/injection, schedule: Q01DX009 (ip), vehicle: saline 98 % of control | [8] 94 % of control | dose: 200.0 mg/kg/injection, schedule: Q01DX009 (ip), vehicle: saline 116 % of control and 88 % of control | [9] 94 % of control | [10] 92 % of control

O=C(O)c1cccc2c1-c1ccc(Cl)cc1C2
inactive: [3] 104 % of control | [5] 102 % of control

c1ccc2cc(C3OCC4(CC4)CO3)ccc2c1
inactive: dose: 50.0 mg/kg/injection, schedule: Q01DX001 (ip), vehicle: Klucel (hydroxypropylcellulose) (HPC) 109 % of control | dose: 100.0 mg/kg/injection, schedule: Q01DX001 (ip), vehicle: Klucel (hydroxypropylcellulose) (HPC) 102 % of control | dose: 200.0 mg/kg/injection, schedule: Q01DX001 (ip), vehicle: Klucel (hydroxypropylcellulose) (HPC) 100 % of control

O=C(Nc1cccc(Cl)c1)Nc1cccc(C(F)(F)F)c1
inactive: dose: 15.0 mg/kg/injection, schedule: Q01DX015 (ip), vehicle: carboxymethylcellulose (CMC) 103 % of control | dose: 30.0 mg/kg/injection, schedule: Q01DX015 (ip), vehicle: carboxymethylcellulose (CMC) 103 % of control | dose: 60.0 mg/kg/injection, schedule: Q01DX015 (ip), vehicle: carboxymethylcellulose (CMC) 100 % of control | dose: 120.0 mg/kg/injection, schedule: Q01DX015 (ip), vehicle: carboxymethylcellulose (CMC) 103 % of control

CCSc1nc(N)nc2c1ncn2C
inactive: dose: 100.0 mg/kg/injection, schedule: Q01DX001 (ip), vehicle: acetone 94 % of control | dose: 200.0 mg/kg/injection, schedule: Q01DX001 (ip), vehicle: acetone 91 % of control | dose: 400.0 mg/kg/injection, schedule: Q01DX001 (ip), vehicle: acetone 90 % of control

CCCCOP(=S)(N1CCCCC1)N1CCCCC1
inactive: [11] 96 % of control | [12] 96 % of control | [13] 107 % of control

[O-][n+]1ccc(N2CCOCC2)cc1
inactive: dose: 100.0 mg/kg/injection, schedule: Q01DX001 (ip), vehicle: saline 100 % of control

NCC(=O)N/C(=C/c1ccccc1)C(=O)NCC(=O)O
inactive: [11] 97 % of control | [12] 97 % of control | [13] 97 % of control

CC(C)(C)C(=O)CC(=O)C(C)(C)C.CC(C)(C)C(=O)CC(=O)C(C)(C)C.CC(C)(C)C(=O)CC(=O)C(C)(C)C.[Yb]
inactive: dose: 100.0 mg/kg/injection, schedule: Q01DX005 (ip), vehicle: Klucel (hydroxypropylcellulose) (HPC) 97 % of control | [2] 97 % of control | dose: 100.0 mg/kg/injection, schedule: Q04DX002 (ip), vehicle: Klucel (hydroxypropylcellulose) (HPC) 96 % of control | dose: 200.0 mg/kg/injection, schedule: Q01DX005 (ip), vehicle: Klucel (hydroxypropylcellulose) (HPC) 105 % of control | [4] 97 % of control | dose: 200.0 mg/kg/injection, schedule: Q04DX002 (ip), vehicle: Klucel (hydroxypropylcellulose) (HPC) 107 % of control | dose: 400.0 mg/kg/injection, schedule: Q01DX005 (ip), vehicle: Klucel (hydroxypropylcellulose) (HPC) 101 % of control | [6] 97 % of control | dose: 400.0 mg/kg/injection, schedule: Q04DX002 (ip), vehicle: Klucel (hydroxypropylcellulose) (HPC) 96 % of control

COc1ccc(C(=O)N/N=C/c2ccccc2OC)cc1
inactive: [2] 92 % of control | [4] 100 % of control | [6] 96 % of control

O=C(Nc1ccccc1Cl)Oc1ccccc1Cc1ccccc1
inactive: [2] 96 % of control | [3] 107 % of control | [4] 93 % of control | [5] 90 % of control | [6] 115 % of control | [7] 93 % of control

NC(=O)Nc1cc(N)cc(NC(N)=O)c1
inactive: [8] 96 % of control | [9] 107 % of control | [10] 106 % of control

O=C1OCOC1C1OCOC1=O (stereo not drawn)
inactive: dose: 55.0 mg/kg/injection, schedule: Q01DX Z (ip), vehicle: methylcellulose (MC) 119 % of control | dose: 83.0 mg/kg/injection, schedule: Q01DX Z (ip), vehicle: methylcellulose (MC) 104 % of control | dose: 125.0 mg/kg/injection, schedule: Q01DX Z (ip), vehicle: methylcellulose (MC) 111 % of control

CC(N=CN(C)C)c1cccc2ccccc12 (stereo not drawn)
inactive: dose: 75.0 mg/kg/injection, schedule: Q01DX009 (ip), vehicle: saline with Tween-80 102 % of control | dose: 100.0 mg/kg/injection, schedule: Q04DX003 (ip), vehicle: saline with Tween-80 97 % of control | dose: 150.0 mg/kg/injection, schedule: Q01DX009 (ip), vehicle: saline with Tween-80 112 % of control | dose: 200.0 mg/kg/injection, schedule: Q04DX003 (ip), vehicle: saline with Tween-80 102 % of control | dose: 300.0 mg/kg/injection, schedule: Q01DX009 (ip), vehicle: saline with Tween-80 112 % of control
